Measurements taken from US12600714B2, “Substituted pyrazinecarboxamide compounds for treating diseases related to EGFR mutation” (WIGEN BIOMEDICINE TECHNOLOGY (SHANGHAI) CO., LTD., priority 2020, dated 2026).

How the values were obtained:
EGFR (del19/T790M/C797S) = test: HTRF inhibitory activity assay against EGFR (del19/T790M/C797S) enzyme; format: biochemical
Method in brief: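 Wild-type or mutant EGFR preincubated with serially diluted compound 10 min at 28 °C, then reacted 40 min at room temperature with biotinylated TK substrate and ATP. Phosphorylation detected by HTRF (Eu-cryptate anti-TK antibody, streptavidin-XL665, 60 min), 665/615 nm ratio; % inhibition and IC50 vs control.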

EGFR (L858R/T790M/C797S) = EGFR (L858R/T790M/C797S) (Homo sapiens, UniProt P00533, C797S/L858R/T790M); test: HTRF inhibitory activity assay against EGFR (L858R/T790M/C797S) enzyme; format: biochemical; conditions: read-out: EGFR (L858R/T790M/C797S) inhibition (%) (0.3 nM compound)
Description: (§1) Inhibitory Activity Assay of the Compounds Disclosed Herein Against EGFR (del19/T790M/C797S), EGFR (L858R/T790M/C797S) or EGFR (WT) Enzymes
(§2) The inhibitory effects of the compounds against EGFR (del19/T790M/C797S), EGFR (L858R/T790M/C797S) or EGFR (WT) enzyme activity was determined by using HTRF. The procedures are as follows:
(§3) The WT or mutant EGFR proteins were incubated with a serially diluted compounds at 28° C. for 10 min followed by addition of biotin-labeled general tyrosine kinase (TK) substrate and ATP. The mixture was incubated at room temperature for 40 min for reaction. After the termination of the reaction, an Eu3+-Cryptate-labeled antibody against TK and streptavidin-XL665 were added and the mixture was incubated at room temperature for 60 min. The luminescences at 615 nm and 665 nm were detected and the ratio of 665/615 was calculated to quantify the level of TK substrate phosphorylation. Inhibition % and IC50 of the compounds were calculated relative to the control group.

EGFR (WT) = EGFR (WT) (Homo sapiens, UniProt P00533); test: HTRF inhibitory activity assay against EGFR (WT) enzyme; format: biochemical
Description: as §1, §2, §3

[1] = molecular target: Ba/F3 (EGFR^del19/T790M/C797S) triple-mutant cells (Homo sapiens, UniProt P00533, T790M/C797S, cells depend on it, form not given); test: Antiproliferative activity against Ba/F3 (EGFR del19/T790M/C797S) triple-mutant cells, Cell Titer Glow; format: cell-based; conditions: three days after addition of compounds; read-out: Antiproliferative activity BaF3(EGFR^del19/T790M/C797S) IC50
Description: (§4) Antiproliferative Activity of the Compounds Disclosed Herein Against Ba/F3 (EGFR^del19/T790M/C797S) Triple-Mutant Cells and A431 (EGFR WT) Cells
(§5) • 3000 Ba/F3 cells carrying EGFR (del19/T790M/C797S) or 2000 A431 cells were seeded in a 384-well plate. After one day, serially diluted compounds were added (up to 500 nM for Ba/F3 cells and up to 10 μM for A431 cells). Three days after the addition of the compounds, Cell Titer Glow was added to evaluate cell growth and the percentage cell growth inhibition by the compounds and the IC50 values were calculated.

A431 (EGFR WT) cells = test: Antiproliferative activity against A431 (EGFR WT) cells, Cell Titer Glow; format: cell-based; conditions: Homo sapiens, A-431, 72 h; three days after addition of compounds; read-out: Antiproliferative activity A431 wild-type (WT) IC50
Description: as §4, §5

EGFR (WT), sequence (P00533 25-1210): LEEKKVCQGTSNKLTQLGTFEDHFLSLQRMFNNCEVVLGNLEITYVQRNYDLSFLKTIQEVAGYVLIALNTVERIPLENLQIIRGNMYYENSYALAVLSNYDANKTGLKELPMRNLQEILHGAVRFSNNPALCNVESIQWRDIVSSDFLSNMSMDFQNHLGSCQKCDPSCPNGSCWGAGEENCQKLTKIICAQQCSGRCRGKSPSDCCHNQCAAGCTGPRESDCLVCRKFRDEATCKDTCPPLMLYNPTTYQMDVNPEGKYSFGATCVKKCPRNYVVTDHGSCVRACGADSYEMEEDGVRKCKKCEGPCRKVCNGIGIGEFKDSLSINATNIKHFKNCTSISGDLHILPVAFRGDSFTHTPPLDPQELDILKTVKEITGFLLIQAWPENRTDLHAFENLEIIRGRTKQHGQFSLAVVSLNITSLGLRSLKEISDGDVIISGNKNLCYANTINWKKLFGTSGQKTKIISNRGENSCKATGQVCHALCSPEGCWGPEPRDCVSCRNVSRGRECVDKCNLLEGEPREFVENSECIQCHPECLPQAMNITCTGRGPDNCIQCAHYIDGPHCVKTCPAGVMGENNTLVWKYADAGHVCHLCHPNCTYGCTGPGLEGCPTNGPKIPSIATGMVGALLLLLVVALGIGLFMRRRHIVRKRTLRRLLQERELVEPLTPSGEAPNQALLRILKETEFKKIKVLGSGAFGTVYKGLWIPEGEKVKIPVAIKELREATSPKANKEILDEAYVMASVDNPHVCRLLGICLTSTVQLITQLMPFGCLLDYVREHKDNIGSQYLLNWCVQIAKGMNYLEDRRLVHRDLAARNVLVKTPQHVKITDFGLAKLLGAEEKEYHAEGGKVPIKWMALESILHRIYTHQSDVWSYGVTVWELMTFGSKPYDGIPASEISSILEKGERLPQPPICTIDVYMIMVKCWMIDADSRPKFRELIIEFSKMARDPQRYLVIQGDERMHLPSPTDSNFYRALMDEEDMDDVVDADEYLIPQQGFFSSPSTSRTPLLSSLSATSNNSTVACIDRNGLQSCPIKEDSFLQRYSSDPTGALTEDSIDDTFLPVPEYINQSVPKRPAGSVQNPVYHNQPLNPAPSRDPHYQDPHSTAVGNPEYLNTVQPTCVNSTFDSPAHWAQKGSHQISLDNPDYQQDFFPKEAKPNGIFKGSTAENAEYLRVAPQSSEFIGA
EGFR (L858R/T790M/C797S), sequence (P00533 25-1210 T790M/C797S/L858R): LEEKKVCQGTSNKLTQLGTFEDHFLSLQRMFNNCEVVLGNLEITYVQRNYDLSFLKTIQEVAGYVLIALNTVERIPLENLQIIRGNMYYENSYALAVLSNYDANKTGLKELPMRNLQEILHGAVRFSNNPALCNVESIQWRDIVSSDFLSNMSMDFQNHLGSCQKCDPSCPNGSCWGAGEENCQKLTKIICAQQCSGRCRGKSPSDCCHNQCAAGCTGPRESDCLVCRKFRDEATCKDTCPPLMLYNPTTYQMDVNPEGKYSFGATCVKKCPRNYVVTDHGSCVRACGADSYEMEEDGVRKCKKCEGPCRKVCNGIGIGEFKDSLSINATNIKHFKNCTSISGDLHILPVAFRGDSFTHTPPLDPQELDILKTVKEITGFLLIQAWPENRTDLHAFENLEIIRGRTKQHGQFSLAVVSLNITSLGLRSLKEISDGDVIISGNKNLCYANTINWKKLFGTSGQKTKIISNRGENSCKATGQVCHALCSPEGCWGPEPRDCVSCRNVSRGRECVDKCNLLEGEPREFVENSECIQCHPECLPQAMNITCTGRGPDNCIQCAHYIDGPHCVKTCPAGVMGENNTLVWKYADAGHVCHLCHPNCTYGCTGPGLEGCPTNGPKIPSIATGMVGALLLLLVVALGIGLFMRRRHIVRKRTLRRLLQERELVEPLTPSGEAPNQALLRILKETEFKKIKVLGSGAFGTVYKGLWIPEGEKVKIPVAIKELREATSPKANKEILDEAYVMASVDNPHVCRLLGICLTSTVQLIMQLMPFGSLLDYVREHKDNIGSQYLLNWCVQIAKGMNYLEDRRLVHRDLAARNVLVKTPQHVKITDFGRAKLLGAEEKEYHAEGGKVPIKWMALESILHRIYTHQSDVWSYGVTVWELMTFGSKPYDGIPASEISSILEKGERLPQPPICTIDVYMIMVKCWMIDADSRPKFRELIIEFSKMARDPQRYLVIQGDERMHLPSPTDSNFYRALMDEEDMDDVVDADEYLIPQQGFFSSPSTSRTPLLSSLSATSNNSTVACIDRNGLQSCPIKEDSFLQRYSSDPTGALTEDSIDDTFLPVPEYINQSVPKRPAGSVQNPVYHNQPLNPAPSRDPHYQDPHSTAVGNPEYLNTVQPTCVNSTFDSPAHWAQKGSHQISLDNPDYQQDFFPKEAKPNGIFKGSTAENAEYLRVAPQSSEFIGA
Ba/F3 (EGFR^del19/T790M/C797S) triple-mutant cells, sequence (P00533 with tags, fused parts or gaps DEL746-750/T790M/C797S, form open): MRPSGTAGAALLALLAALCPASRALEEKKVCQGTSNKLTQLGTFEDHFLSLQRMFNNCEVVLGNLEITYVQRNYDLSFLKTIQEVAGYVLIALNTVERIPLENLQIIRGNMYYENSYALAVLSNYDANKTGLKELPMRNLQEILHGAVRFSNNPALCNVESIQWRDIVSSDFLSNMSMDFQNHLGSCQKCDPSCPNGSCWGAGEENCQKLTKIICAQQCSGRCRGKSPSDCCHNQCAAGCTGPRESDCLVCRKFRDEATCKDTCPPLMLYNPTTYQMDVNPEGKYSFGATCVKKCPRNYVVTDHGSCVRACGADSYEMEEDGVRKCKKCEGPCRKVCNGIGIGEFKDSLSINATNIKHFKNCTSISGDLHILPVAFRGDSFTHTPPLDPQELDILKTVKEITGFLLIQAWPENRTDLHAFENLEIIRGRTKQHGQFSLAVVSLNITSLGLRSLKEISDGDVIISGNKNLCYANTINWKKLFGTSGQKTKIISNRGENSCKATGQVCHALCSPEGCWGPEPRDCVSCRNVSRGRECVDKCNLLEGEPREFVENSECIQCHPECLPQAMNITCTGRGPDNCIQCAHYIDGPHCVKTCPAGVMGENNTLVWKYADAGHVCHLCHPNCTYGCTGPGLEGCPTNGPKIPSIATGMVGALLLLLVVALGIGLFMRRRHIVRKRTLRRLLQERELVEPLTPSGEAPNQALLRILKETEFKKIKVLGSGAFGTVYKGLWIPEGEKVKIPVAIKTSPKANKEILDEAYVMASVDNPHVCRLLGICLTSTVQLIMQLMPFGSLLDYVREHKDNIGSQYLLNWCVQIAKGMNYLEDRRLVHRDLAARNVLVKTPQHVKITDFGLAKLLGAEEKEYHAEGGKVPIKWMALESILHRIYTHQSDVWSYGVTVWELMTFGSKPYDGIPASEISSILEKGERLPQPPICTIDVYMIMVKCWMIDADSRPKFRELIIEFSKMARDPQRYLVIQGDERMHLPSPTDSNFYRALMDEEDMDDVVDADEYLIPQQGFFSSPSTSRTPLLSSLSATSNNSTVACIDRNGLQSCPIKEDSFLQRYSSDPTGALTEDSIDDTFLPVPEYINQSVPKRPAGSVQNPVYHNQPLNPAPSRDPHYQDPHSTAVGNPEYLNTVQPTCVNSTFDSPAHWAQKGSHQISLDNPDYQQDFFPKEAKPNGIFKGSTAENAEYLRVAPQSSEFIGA

Row | inhibition at 0.0003 µM (EGFR (L858R/T790M/C797S)) [%] | IC50 (EGFR (WT)) [nM] | GI50 [1] [nM] | IC50 (A431 (EGFR WT) cells) [nM] | SMILES | EGFR (del19/T790M/C797S) inhibition (%) (0.3 nM compound) (EGFR (del19/T790M/C797S))
1 | ≤ 20 | > 300 | 236 | 2500 | CN1CCN(C2CCN(c3ccc(Nc4nc(NC5CCOCC5)c(-c5ccccc5)nc4C(N)=O)cc3)CC2)CC1 [compound 1] | + (+ indicates an inhibition less than or equal to 20%)
2 | ≤ 20 |  | 248 | 2600 | CN1CCN(C2CCN(c3ccc(Nc4nc(NC5CS(=O)(=O)C5)c(-c5ccccc5)nc4C(N)=O)cc3)CC2)CC1 [compound 126] | + (+ indicates an inhibition less than or equal to 20%)
3 | ≤ 20 |  | > 500 |  | CCc1nc(C(N)=O)c(Nc2ccc(N3CCC(N4CCN(C)CC4)CC3)c(OC)c2)nc1NC1CCOCC1 [Gilteritinib, gilteritinib, reference compound] | 
4 | 20 to 50 |  | 233 | 750 | COc1ccncc1-c1nc(C(N)=O)c(Nc2ccc(N3CCC(N4CCN(C)CC4)CC3)cc2)nc1NC1CCOCC1 [compound 83] | ++ (++ indicates an inhibition from 20% to 50%)
5 | > 50 |  | 70 | 590 | CN1CCC(c2ccc(Nc3nc(NC4CCOCC4)c(-c4ccncc4)nc3C(N)=O)cc2)CC1 [compound 121] | +++ (+++ indicates an inhibition greater than 50%.)
6 |  | > 100 |  |  | CN1CCN(C2CCN(c3ccc(Nc4nc(O[C@H]5CCN(C)C5)c(-c5ccccc5)nc4C(N)=O)cc3)CC2)CC1 [compound 2] | + (+ indicates an inhibition less than or equal to 20%)
7 | 20 to 50 |  |  |  | CN1CCN(C2CCN(c3ccc(Nc4nc(N[C@@H]5CC[C@@H](O)C5)c(-c5ccccc5)nc4C(N)=O)cc3)CC2)CC1 [compound 137, 5-(((1R,3R)-3-hydroxycyclopentyl)amino)-3-((4-(4-(4-methylpiperazin-1-yl)piperidin-1-yl)phenyl)amino)-6-phenylpyrazine-2-carboxamide] | ++ (++ indicates an inhibition from 20% to 50%)
8 |  | > 300 | 107 | 540 | CC(C)Nc1nc(Nc2ccc(N3CCC(N4CCN(C)CC4)CC3)cc2)c(C(N)=O)nc1-c1ccccc1 [compound 11] | ++ (++ indicates an inhibition from 20% to 50%)
9 | 20 to 50 |  | 48 | 1800 | CN1CCN(C2CCN(c3ccc(Nc4nc(NC5CCOCC5)c(-c5ccccn5)nc4C(N)=O)cc3)CC2)CC1 [compound 38] | 
10 | > 50 |  |  |  | CN1CCN(C2CCN(c3ccc(Nc4nc(N[C@H]5CC[C@H](O)CC5)c(-c5cccc6[nH]ccc56)nc4C(N)=O)cc3F)CC2)CC1 [compound 535] | +++ (+++ indicates an inhibition greater than 50%.)
11 | ≤ 20 |  | 54 | 480 | COC1CCC(Nc2nc(Nc3ccc(N4CCC(N5CCN(C)CC5)CC4)cc3)c(C(N)=O)nc2-c2ccccc2)C1 (centres unmarked) [compound 35] | ++ (++ indicates an inhibition from 20% to 50%)
12 | > 50 |  | 13 | 70 | CN1CCN(C2CCN(c3ccc(Nc4nc(NC5COC5)c(-c5cccc6[nH]ccc56)nc4C(N)=O)cc3)CC2)CC1 [compound 594] | +++ (+++ indicates an inhibition greater than 50%.)
13 |  | > 300 | 72 | 1400 | CN(C)C1CCN(c2ccc(Nc3nc(NC4CCOCC4)c(-c4ccccc4)nc3C(N)=O)cc2)CC1 [compound 59] | + (+ indicates an inhibition less than or equal to 20%)
14 |  | > 300 | 197 | 1300 | CNc1nc(Nc2ccc(N3CCC(N4CCN(C)CC4)CC3)cc2)c(C(N)=O)nc1-c1ccccc1 [compound 13] | + (+ indicates an inhibition less than or equal to 20%)
15 | 20 to 50 |  | 99 | 650 | CO[C@H]1C[C@H](Nc2nc(Nc3ccc(N4CCC(N5CCN(C)CC5)CC4)cc3)c(C(N)=O)nc2-c2ccccc2)C1 [compound 125] | ++ (++ indicates an inhibition from 20% to 50%)
16 |  | > 300 |  |  | CN1CCN(C2CCN(c3ccc(Nc4nc(N(C)C)c(-c5ccccc5)nc4C(N)=O)cc3)CC2)CC1 [compound 10] | ++ (++ indicates an inhibition from 20% to 50%)
17 |  | > 300 | 113 | 950 | CC(C)Oc1nc(Nc2ccc(N3CCC(N4CCN(C)CC4)CC3)cc2)c(C(N)=O)nc1-c1ccccc1 [compound 14] | + (+ indicates an inhibition less than or equal to 20%)
18 | > 50 |  |  |  | CN1CCN(C2CCN(c3ccc(Nc4nc(NC5CCCC5)c(-c5cccc6[nH]ccc56)nc4C(N)=O)cc3)CC2)CC1 [compound 524] | +++ (+++ indicates an inhibition greater than 50%.)
19 | > 50 |  |  |  | CN1CCN(C2CCN(c3ccc(Nc4nc(NC5CCOCC5)c(-c5cccc6[nH]ccc56)nc4C(N)=O)cc3F)CC2)CC1 [compound 519] | +++ (+++ indicates an inhibition greater than 50%.)
20 | ≤ 20 |  |  |  | CN1CCN(C2CCN(c3ccc(Nc4nc(NC5CCOCC5)c(-c5cccs5)nc4C(N)=O)cc3)CC2)CC1 [compound 94] | ++ (++ indicates an inhibition from 20% to 50%)
21 | ≤ 20 |  |  |  | CN1CCN(C2CCN(c3ccc(Nc4nc(NC5CCOCC5)c(-c5ccco5)nc4C(N)=O)cc3)CC2)CC1 [compound 69] | + (+ indicates an inhibition less than or equal to 20%)
22 |  | > 300 | 48 | 520 | CN1CCN(C2CCN(c3ccc(Nc4nc(NCC(C)(C)O)c(-c5ccccc5)nc4C(N)=O)cc3)CC2)CC1 [compound 21] | ++ (++ indicates an inhibition from 20% to 50%)
23 | > 50 |  |  |  | CN1CCN(C2CCN(c3ccc(Nc4nc(NC5CCC5)c(-c5cccc6[nH]ccc56)nc4C(N)=O)cc3F)CC2)CC1 [compound 532] | +++ (+++ indicates an inhibition greater than 50%.)
24 | > 50 |  | 27 | 970 | Cc1cc(Nc2nc(NC3CCOCC3)c(-c3ccncc3)nc2C(N)=O)ccc1N1CCC(N2CCN(C)CC2)CC1 [compound 114] | ++ (++ indicates an inhibition from 20% to 50%)
25 | ≤ 20 | > 100 |  |  | CN1CCN(C2CCN(c3ccc(Nc4nc(Nc5ccccc5)c(-c5ccccc5)nc4C(N)=O)cc3)CC2)CC1 [compound 5] | + (+ indicates an inhibition less than or equal to 20%)
26 | > 50 |  |  |  | CN1CCN(C2CCN(c3ccc(Nc4nc(NC5CCC5)c(-c5cccc6[nH]ccc56)nc4C(N)=O)cc3)CC2)CC1 [compound 523] | +++ (+++ indicates an inhibition greater than 50%.)
27 | ≤ 20 |  |  |  | CN1CCN(C2CCN(c3ccc(Nc4nc(NC5CCOCC5)c(-c5cccc(F)c5)nc4C(N)=O)cc3)CC2)CC1 [compound 60] | ++ (++ indicates an inhibition from 20% to 50%)
28 | ≤ 20 |  | 36 | 950 | CN1CCN(C2CCN(c3ccc(Nc4nc(N[C@H]5CC[C@H](O)CC5)c(-c5ccccc5)nc4C(N)=O)cc3)CC2)CC1 [compound 23] | ++ (++ indicates an inhibition from 20% to 50%)
29 |  | > 300 |  |  | CN1CCN(C2CCN(c3ccc(Nc4nc(NC5CCOCC5)c(-c5ccccc5C#N)nc4C(N)=O)cc3)CC2)CC1 [compound 52] | +++ (+++ indicates an inhibition greater than 50%.)
